Data on one molecule can be found in PMC4184574, “Enantioselectivity in the cytochrome P450-dependent conversion of tegafur to 5-fluorouracil in human liver microsomes” (Pharmacology Research & Perspectives, 2013).

The data set can be described thus: 5-FU formation from FT enantiomers in pooled human hepatic cytosol. It is filed as in vitro ADME. On the procedure:
(pooled preparations from 20 donors; Kansas City, KS). […] Insect microsomes expressing only NADPH-P450 oxidoreductase and cytochrome b5 were also used as control. These enzymes were stored at −80°C until use.
5-FU formed from FT was subjected to extensive metabolism by dihydropyrimidine dehydrogenase (DPD) contaminating human hepatic preparations. Therefore, a potent DPD inhibitor, CDHP, was always added to avoid the unexpected loss of 5-FU (Ikeda et al. [2000]; Yamamiya et al. [2010]). Incubation mixture for hepatic microsomal metabolism contained FT, microsomes (1 mg protein/mL), 0.1 mmol/L CDHP, and an NADPH-generating system consisting of 1.3 mmol/L β-NADP^+, 3.3 mmol/L glucose-6-phosphate, 3.3 mmol/L magnesium chloride, and 0.4 units glucose-6-phosphate dehydrogenase in 100 mmol/L Tris (pH 7.4). Metabolic reaction by S9 and cytosol (each 2 mg protein/mL) was carried out in 100 mmol/L phosphate (pH 7.4) because TPase requires phosphate ions for catalyzing the reaction. […] The spontaneous degradation of FT to 5-FU was evaluated using enzymes inactivated by heating them at 100°C for 5 min.
Concentration of 5-FU was determined using a LC/MS/MS system. […] For quantification of 5-FU, the calibration curves were linear over the range 2–1000 ng/mL. […]

With `O=c1[nH]c(=O)n([C@H]2CCCO2)cc1F` [R-FT], the Vmax (in general, the top rate of the reaction or transport when substrate is in excess) came out at 761 pmol/min/mg. Also, the Km (commonly the concentration of substrate that gives half-maximal velocity) (read-out: apparent Km) is 26 mM.
